Converted amounts (≈) assume the structure as drawn.
How the values were obtained:
rats = experiment: Clinical observations of rats during administration of propofol analogs in the pharmacokinetics study
Experimental: (§1) Blood samples were to be taken pre-dose, during dose and post dose at designated intervals, with the blood quickly processed and stored at −70° C. until analysis.
(§2) Formulations were prepared on the morning of the dosing day and each was passed through a 0.22 μm filter prior to being administered to animals. A standard dose of 0.168 mmol/Kg per analog was administered to each of the rats. […] Analog stability in the formulations was verified by preparing each formulation and harvesting 200 μL aliquots at 0, 1, 2 and 8 hr while standing at room temperature. After harvesting, each sample was immediately frozen in dry ice until analysis; concentrations of test compounds in the samples were examined by HPLC-UV.
(§3) The animals were surgically prepared with indwelling cannula, double cannulation in carotid artery and jugular vein for i.v. infusion. The anesthetic pentobarbital was used during the surgery, and the animals were allowed to recover 3-5 days after surgery before the formulation was dosed. The dose formulation was administered intravenously via the jugular vein cannula. The 16.8 μmol/mL formulation was administered i.v. at a rate of 1 mL/Kg/min for 10 min.

[1] = Solubility determination of propofol analogs in D2O by 1H NMR with DSS internal standard; conditions: D2O, water, thermodynamic from solid
Experimental: Thus the soapy-like solutions obtained were diluted until opalescent and diluted further until the opalescence visually disappeared.

[2] = Pharmacokinetics: concentration of prodrug (or propofol) in rat plasma after intravenous infusion, LC/MS/MS; conditions: for Mean concentration of prodrug and propofol in rat plasma after intravenous infusion administration: analyte = administered compound
Experimental: as §1, §2, §3
(§4) Approximately 0.20 mL blood was collected at each designated time point from carotid artery via a catheter. A total of 12 plasma samples were taken from each animal: 1 pre-dose; 2 during the dose (5 into the 10 min infusion and one just prior termination of the 10 min infusion) and 9 post-infusion at 2, 5, 15, 30 min and 1, 2, 3, 4, and 6 hr post-dose. All blood samples were transferred into plastic microcentrifuge tubes containing 5 μL of K2-EDTA (0.5M) as anti-coagulant and placed on ice until processed for plasma. Blood samples were processed for plasma by centrifugation at approximately 5° C. Plasma samples were then stored in 1.5 mL tubes, quick frozen over dry ice and kept at −70±10° C. until LC/MSMS analysis.
(§5) For each, a minimum of 6 standard point curve runs in duplicates, and minimum of 5 standards were back calculated to within ±20% of their nominal concentrations. The LLOQ of each test article in plasma was established and 6 QC samples were included in assay runs of samples to ensure assay performance.
(§6) Plasma concentration versus time data was analyzed by non-compartmental approaches using the WinNonlin software program (version 5.2, Pharsight, Mountain View, Calif.) and the pharmacokinetic parameters T½, CL, Vss, AUC(0-t), AUC(0-inf), MRT, and graphs of plasma concentration versus time calculated for each.

[3] = Pharmacokinetics: concentration of propofol in rat plasma after intravenous infusion of each pro-drug, LC/MS/MS; conditions: for Mean Concentration of Propofol in Rat Plasma After Intravenous Administration: analyte propofol from the administered compound
Experimental: as §1, §2, §3, §4, §5, §6

[4] = time post-10 min i.v. infusion, 0.168 mmol/Kg
[5] = male, Sprague-Dawley, rat, plasma, iv, 0.168 mmol/Kg

In the case of `CC(C)c1cccc(C(C)C)c1OC(=O)OCCCO[C@H]1O[C@H](CO)[C@@H](O)[C@H](O)[C@H]1O` [Compound 33], the “Clinical Observation: Rats soporous at” value (rats; [4]) is reported as “Rats soporous at about 3 min and”, the “Clinical Observation: recovered at” value (rats; [4]) is reported as “recovered at about 30 min” and the solubility [1] is reported as 5.7 mM (≈ 2520 µg/mL). For the same molecule, the “Mean concentration of prodrug and propofol in rat plasma after intravenous infusion administration” value ([2]; Time 0 h (pre-dose)) was “BQL”, the “Mean concentration of prodrug and propofol in rat plasma after intravenous infusion administration” value ([2]; Time 0.25 h) was “BQL” and the “Mean concentration of prodrug and propofol in rat plasma after intravenous infusion administration” value ([2]; Time 0.417 h) was “BQL”. For the same molecule, the “Mean concentration of prodrug and propofol in rat plasma after intravenous infusion administration” value ([2]; Time 0.667 h) was “BQL”, the “Mean concentration of prodrug and propofol in rat plasma after intravenous infusion administration” value ([2]; Time 1.166 h) was “BQL” and the “Mean concentration of prodrug and propofol in rat plasma after intravenous infusion administration” value ([2]; Time 2.166 h) was “BQL”. The “Mean concentration of prodrug and propofol in rat plasma after intravenous infusion administration” value ([2]; Time 3.166 h) was “BQL”, the “Mean concentration of prodrug and propofol in rat plasma after intravenous infusion administration” value ([2]; Time 4.166 h) was “BQL” and the “Mean concentration of prodrug and propofol in rat plasma after intravenous infusion administration” value ([2]; Time 6.166 h) was “BQL”. For the same molecule, the AUC(0-t) [2, 5] was 0.00304 µM·h, the Cmax [2, 5] was 0.0231 µM and the Tmax [2, 5] was 0.17 h. The “Mean Concentration of Propofol in Rat Plasma After Intravenous Administration” value (shortened to “Mean Concentration of Propofol”) ([3]; Time 0 h (pre-dose)) was “BQL”, the “Mean Concentration of Propofol” value ([3]; Time 4.166 h) was “BQL” and the “Mean Concentration of Propofol” value ([3]; Time 6.166 h) was “BQL”. The “pro-drug efficiency, release of propofol” value ([3]; releasing the propofol in a matter of minutes after infusion, rat) was “very efficient pro-drugs”.
For `CC(C)c1cccc(C(C)C)c1O` [Propofol, 2,6-diisopropylphenol, reference compound], the “Clinical Observation: Rats soporous at” value (rats; [4]) was “Rats soporous at about 4 min and”, the “Clinical Observation: recovered at” value (rats; time post-10 min infusion, 5% cremophor vehicle) was “recovered at about 1.5 hr” and the solubility [1] was 1.1 mM (≈ 196 µg/mL). For the same molecule, the AUC(0-inf) [2, 5] was 12.6 µM·h, the AUC(0-t) [2, 5] was 10.6 µM·h and the Cmax [2, 5] was 31.9 µM. It also gave an MRT inf [2, 5] of 3.48 h, a Tmax [2, 5] of 0.18 h and a Vd [2, 5] of 61.2 L/kg. The clearance [2, 5] was 265 mL/min/kg, the half-life [2, 5] was 6.39 h and the “Mean Concentration of Propofol” value ([3]; Time 0 h (pre-dose)) was “BQL”.
